# Target: Sodium/potassium-transporting ATPase
# Assay: Ability to displace [3H]ouabain from Na+/K+ ATPase in dog kidney.
# Type: protein-complex assay, Canis lupus familiaris
smiles,measurement,value
C[C@]12CC[C@H](O)C[C@H]1CC[C@@H]1[C@@H]2CC[C@]2(C)[C@@](O)(c3ccoc3)CC[C@]12O [ROSTAFUROXIN],IC50,1.5 µM
